Assay results: ChEMBL document CHEMBL5576098, “Synthesis and activity of benzimidazole N-Acylhydrazones against Trypanosoma cruzi, Leishmania amazonensis and Leishmania infantum” (Bioorg Med Chem Lett, 2024)
The source made the active and inactive calls. No cut-off for these calls is given here.

Assays:
[1] = test system: Trypanosoma cruzi; experiment: Antitrypanosomal activity against tissue-culture derived trypomastigote form of Trypanosoma cruzi Y measured after 120 hrs; assay type: functional
[2] = Selectivity index, ratio of CC50 for mouse RAW264.7 cells to IC50 for Leishmania infantum amastigotes infected in mouse RAW264.7 cells; assay type: toxicity, cell-based; conditions: read-out: Ratio CC50/IC50
[3] = test system: Trypanosoma cruzi; experiment: Antitrypanosomal activity against Trypanosoma cruzi Tulahuen expressing beta-galactosidase gene infected in mouse L929 cells measured after 120 hrs; assay type: functional, organism-based; conditions: L929, 120 h
[4] = test system: Leishmania infantum; experiment: Antiparasitic activity against Leishmania infantum amastigotes infected in mouse RAW264.7 cells measured after 48 hrs; assay type: functional, organism-based; conditions: for IC50: RAW264.7, 48 h
[5] = Cytotoxicity against non-infected mouse peritoneal macrophage cells measured after 24 hrs; assay type: toxicity, cell-based; conditions: non-infected peritoneal macrophages, read-out: LC50
[6] = Selectivity index, ratio of CC50 for mouse L929 cells to IC50 for Trypanosoma cruzi Tulahuen expressing beta-galactosidase gene infected in mouse L929 cells; assay type: toxicity, cell-based; conditions: read-out: Ratio CC50/IC50
[7] = test system: Leishmania infantum; experiment: Antiparasitic activity against Leishmania infantum promastigotes infected in mouse RAW264.7 cells measured after 48 hrs; assay type: functional, organism-based; conditions: for IC50: RAW264.7, 48 h
[8] = test system: Trypanosoma cruzi; experiment: Antitrypanosomal activity against bloodstream trypomastigote form of Trypanosoma cruzi Y measured after 24 hrs; assay type: functional, organism-based
[9] = molecular target: Cruzipain (Trypanosoma cruzi) (UniProt P25779); experiment: Inhibition of Trypanosoma cruzi cruzain at 100 uM relative to control
[10] = test system: Leishmania amazonensis; experiment: Antiparasitic activity against Leishmania amazonensis amastigotes infected in mouse RAW264.7 cells measured after 48 hrs; assay type: functional, organism-based; conditions: for IC50: RAW264.7, 48 h
[11] = Cytotoxicity against mouse RAW264.7 cells measured after 48 hrs; assay type: toxicity, cell-based
[12] = Cytotoxicity against mouse L929 cells assessed as inhibition of cell viability measured after 120 hrs; assay type: toxicity, cell-based
[13] = test system: Leishmania amazonensis; experiment: Antiparasitic activity against Leishmania amazonensis promastigotes infected in mouse RAW264.7 cells measured after 48 hrs; assay type: functional, organism-based; conditions: for IC50: RAW264.7, 48 h
[14] = Selectivity index, ratio of LC50 for mouse peritoneal macrophage cells to IC50 for bloodstream trypomastigote form of Trypanosoma cruzi Y; assay type: toxicity; conditions: peritoneal macrophages, read-out: Ratio LC50/IC50
[15] = Selectivity index, ratio of CC50 for mouse RAW264.7 cells to IC50 for Leishmania amazonensis amastigotes infected in mouse RAW264.7 cells; assay type: toxicity, cell-based; conditions: read-out: Ratio CC50/IC50
[16] = Selectivity index, ratio of CC50 for mouse RAW264.7 cells to IC50 for Leishmania amazonensis promastigotes infected in mouse RAW264.7 cells; assay type: toxicity, cell-based; conditions: read-out: Ratio CC50/IC50
[17] = Selectivity index, ratio of CC50 for mouse RAW264.7 cells to IC50 for Leishmania infantum promastigotes infected in mouse RAW264.7 cells; assay type: toxicity, cell-based; conditions: read-out: Ratio CC50/IC50
[18] = test system: Trypanosoma cruzi; experiment: Potency index, ratio of benznidazole IC50 to test compound IC50 for antitrypanosomal activity against Trypanosoma cruzi Tulahuen expressing beta-galactosidase gene infected in mouse L929 cells measured after 120 hrs; assay type: functional
[19] = test system: Leishmania infantum; experiment: Antiparasitic activity against Leishmania infantum; assay type: functional, organism-based

Chain of Cruzipain (Trypanosoma cruzi) (P25779 123-467 limits assumed): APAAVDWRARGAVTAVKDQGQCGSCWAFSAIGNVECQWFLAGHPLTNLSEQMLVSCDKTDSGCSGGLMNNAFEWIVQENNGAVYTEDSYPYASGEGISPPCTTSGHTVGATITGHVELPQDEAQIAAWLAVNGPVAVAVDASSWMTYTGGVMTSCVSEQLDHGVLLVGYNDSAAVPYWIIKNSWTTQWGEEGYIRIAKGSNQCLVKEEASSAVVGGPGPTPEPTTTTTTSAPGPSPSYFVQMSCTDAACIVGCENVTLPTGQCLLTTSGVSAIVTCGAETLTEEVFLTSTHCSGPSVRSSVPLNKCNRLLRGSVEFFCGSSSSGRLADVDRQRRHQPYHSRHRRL

| Compound | LC50 [1] [µM] | selectivity ratio [2] | IC50 [3] [µM] | IC50 [4] [µM] | CC50 at 24 h [5] [µM] | selectivity ratio [6] | Activity [7] | IC50 [8] [µM] | inhibition [9] [%] | Activity [10] | CC50 at 48 h [11] [µM] | CC50 at 120 h [12] [µM] | Activity [13] | selectivity ratio [15] | IC50 [10] [µM] | Activity [4] | also measured |
| --- | --- | --- | --- | --- | --- | --- | --- | --- | --- | --- | --- | --- | --- | --- | --- | --- | --- |
| O=C(N/N=C/c1ccc(O)cc1)c1nc2ccccc2[nH]1 | 233 | 0.9 | 68.9 | 97.4 | > 500 | 2.5 | inactive | 89.7 | 65 | inactive | 88.8 | 170 | inactive | – | – | – | selectivity ratio [14]: > 5.6 |
| COc1cc(/C=N/NC(=O)c2nc3ccccc3[nH]2)cc(OC)c1OC | 343 | – | 35.6 | > 282 | – | 5.7 | inactive | > 500 | 6 | – | 42.3 | 203 | – | 0.3 | 148 | – | IC50 [13]: > 282 µM |
| COc1ccc(/C=N/NC(=O)c2nc3ccccc3[nH]2)cc1 | 472 | 5.1 | 80.5 | 36.7 | > 500 | 2.1 | inactive | 207 | 22 | – | 188 | 170 | inactive | 5.4 | 35 | – | – |
| O=C(N/N=C/c1ccc([N+](=O)[O-])cc1)c1nc2ccccc2[nH]1 | 328 | – | 202 | – | – | > 1.6 | inactive | > 500 | 2 | inactive | 84.4 | > 323 | inactive | – | – | inactive | – |
| COc1cc(/C=N/NC(=O)c2nc3ccccc3[nH]2)cc([N+](=O)[O-])c1O | 369 | – | 104 | – | – | 1.2 | inactive | > 500 | 45 | inactive | 84.4 | 124 | inactive | – | – | inactive | – |
| COc1cc(/C=N/NC(=O)c2nc3ccccc3[nH]2)ccc1O | 394 | – | 65.7 | – | – | 1.1 | inactive | > 500 | 38 | inactive | 89.9 | 72.2 | inactive | – | – | inactive | – |
| O=C(Cn1ccnc1[N+](=O)[O-])NCc1ccccc1 [BENZNIDAZOLE] | 10.8 | – | 1.52 | – | > 1000 | 1390 | – | 8.8 | – | – | – | 2110 | – | – | – | – | selectivity ratio [14]: 113 |
| O=C(N/N=C/c1cccs1)c1nc2ccccc2[nH]1 | 416 | 2.7 | 91.7 | 48.8 | – | 1.9 | inactive | > 500 | 24 | – | 131 | 170 | inactive | 2.1 | 61.4 | – | – |
| CCCCCCCCCCCCCCCCOP(=O)([O-])OCC[N+](C)(C)C [MILTEFOSINE] | – | 12.7 | – | 1.72 | – | – | – | – | – | – | 21.8 | – | – | 13.1 | 1.67 | – | selectivity ratio [16]: 4.2; IC50 [7]: 3.92 µM; selectivity ratio [17]: 5.6; IC50 [13]: 5.2 µM |
| O=C(N/N=C/c1ccc2c(c1)OCO2)c1nc2ccccc2[nH]1 | – | – | 105 | – | – | 1.4 | inactive | > 500 | 47 | – | 30.1 | 148 | inactive | 0.7 | 45.1 | inactive | – |
| O=C(N/N=C/c1ccccc1O)c1nc2ccccc2[nH]1 | 19.9 | 1.3 | 3.6 | 21.8 | – | 14.7 | – | > 500 | 4 | – | 29.2 | 52.4 | inactive | 0.3 | 104 | – | IC50 [7]: 23.9 µM; selectivity ratio [17]: 1.2 |
| O=C(N/N=C/c1ccccc1)c1nc2ccccc2[nH]1 | – | 2.3 | 98.4 | 53.7 | – | 2.1 | inactive | > 500 | 25 | – | 123 | 204 | inactive | 0.6 | 191 | – | – |
| COc1ccc(/C=N/NC(=O)c2nc3ccccc3[nH]2)cc1OC | – | – | 173 | – | > 500 | 1.7 | inactive | 160 | 35 | inactive | 53.6 | 293 | inactive | – | – | inactive | selectivity ratio [14]: > 3.1 |
| COc1ccc(/C=N/NC(=O)c2nc3ccccc3[nH]2)cc1O | 203 | 1.7 | 24.8 | 52.5 | 120 | 6.2 | – | 123 | 58 | – | 88.9 | 153 | inactive | 0.7 | 136 | – | IC50 [7]: 191 µM; selectivity ratio [17]: 0.5; selectivity ratio [14]: 1 |
| O=C(N/N=C/c1ccc([N+](=O)[O-])o1)c1nc2ccccc2[nH]1 | 15 | 0.4 | 0.033 | 61.8 | > 500 | 7680 | – | 304 | 18 | – | 25.7 | 257 | inactive | 1.4 | 18.4 | – | IC50 [7]: 28.7 µM; selectivity ratio [17]: 0.9; Ratio IC50 [18]: 46; selectivity ratio [14]: > 1.6 |
| O=C(N/N=C/c1ccncc1)c1nc2ccccc2[nH]1 | 619 | – | 32.4 | – | – | 8.2 | inactive | > 500 | 20 | – | 126 | 265 | inactive | 0.7 | 172 | inactive | – |
| O=C(N/N=C/c1ccc(Cl)cc1)c1nc2ccccc2[nH]1 | – | 0.4 | 14.7 | 28.4 | – | 3.5 | – | > 500 | 3 | inactive | 12.4 | 51.9 | inactive | – | – | – | IC50 [7]: > 335 µM |
| O=C(N/N=C/c1ccc(F)cc1)c1nc2ccccc2[nH]1 | 633 | 3.1 | 230 | 18.4 | – | 1.5 | inactive | > 500 | 17 | – | 57.8 | 354 | inactive | – | > 354 | – | – |
| COc1cc(/C=N/NC(=O)c2nc3ccccc3[nH]2)cc(OC)c1 | – | – | 29 | – | – | 5.6 | inactive | > 500 | 50 | – | 8.94 | 164 | inactive | 0.1 | 71.8 | inactive | – |
| CCCn1c(NC(=O)Cc2ccc(Cl)cc2)nc2ccccc21 | – | – | – | – | – | – | – | – | – | – | – | – | – | – | – | – | IC50 [19]: 12 µM |
| O=C(N/N=C/c1ccc(O)c(O)c1)c1nc2ccccc2[nH]1 | 98.2 | 0.4 | 72.9 | 37.8 | 128 | 1.4 | – | 144 | 61 | – | 14.8 | 102 | – | 0.2 | 62.1 | – | selectivity ratio [16]: 0.09; IC50 [7]: 90.8 µM; selectivity ratio [17]: 0.2; IC50 [13]: 170 µM; selectivity ratio [14]: 0.9 |
| O=C(N/N=C/c1ccc(Br)cc1)c1nc2ccccc2[nH]1 | – | – | 7.3 | – | – | 6.8 | inactive | > 500 | 3 | inactive | 8.6 | 49.8 | inactive | – | – | inactive | – |
